In US20110269758A1, “NAPHTHYRIDINONES AS PROTEIN KINASE INHIBITORS” (MERCK PATENT GMBH, priority 2008, published 2011) one finds IC50 data, which are given here for 27 molecules.

One assay deals with T1, Aurora Kinase A (Homo sapiens, UniProt O14965).
T1 construct: full length Aurora A (1-403 amino acids); purchased Carna Biosciences 05-101
T1 sequence (O14965 1-403): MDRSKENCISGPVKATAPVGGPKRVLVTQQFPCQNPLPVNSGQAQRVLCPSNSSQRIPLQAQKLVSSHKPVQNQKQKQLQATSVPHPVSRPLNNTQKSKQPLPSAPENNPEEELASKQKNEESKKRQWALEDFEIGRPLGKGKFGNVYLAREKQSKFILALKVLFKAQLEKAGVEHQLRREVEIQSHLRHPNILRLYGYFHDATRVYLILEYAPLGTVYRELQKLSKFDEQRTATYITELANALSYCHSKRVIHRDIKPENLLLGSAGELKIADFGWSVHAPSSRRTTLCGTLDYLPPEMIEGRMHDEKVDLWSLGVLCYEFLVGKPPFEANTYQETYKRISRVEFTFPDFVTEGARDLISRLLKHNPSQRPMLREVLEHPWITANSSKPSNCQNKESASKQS
As to the kind of experiment: Biochemical enzyme assay for Aurora A activity (Caliper LC3000 / Desktop Profiler mobility shift). The settings on record: GST-Aurora A, 15 μM ATP, 90 min at 25° C.; LC3000 or Desktop Profiler; read-out: Aurora Kinase A IC50. Here is the method:
(§1) The Aurora assays described here were performed on two Caliper Life Sciences systems, the LC3000 and the Desktop Profiler. These provide data on enzyme activity via measurement of the relative amounts of phosphorylated or unphosphorylated fluorescently labelled substrate peptide at the end of an enzymatic reaction. These different states of peptide are resolved by applying a potential difference across the sample. The presence of a charged phosphate group on the product (as opposed to the substrate) causes a different peptide mobility between the two peptides. This is visualized by excitation of a fluorescent label on the substrate and product peptides and represented as peaks within the analysis software.
In order to measure inhibitor activity of Aurora A inhibitors in the Caliper Life Sciences LC3000, a TTP Mosquito liquid handling instrument was used to place 0.25 μl of an appropriate concentration of inhibitor in 100% DMSO (for a dose response curve calculation) into each well of a 384-well plate.
The reaction was incubated for 90 min at 25° C., and then stopped by the addition of 70 μl of Stop buffer (100 mM HEPES pH 7.5, 0.015% Brij-35, 10 mM EDTA (Sigma, E7889)).
The plate was read on a Caliper LC 3000 in an Off-Chip mobility shift assay format, using the following parameters for a 12-sipper chip: screening pressure −1.8 psi, upstream voltage −2700, downstream voltage −1000. These conditions cause unphosphorylated substrate and phosphorylated product peptide to resolve as separate peaks allowing direct measurement of percentage of conversion of substrate to product.
(§2) The Desktop Profiler utilizes the same prinicipal as the LC 3000 for calculating percentage conversion of a substrate to product. Caliper Life Sciences provided proprietary flash frozen pre-made 384 well plates containing selected kinases. Each column in the 384 well plate contained a particular selected kinase. A second plate, the ‘substrate plate’ contained a mix of fluorescently labeled peptide substrate and ATP. These were arranged in columns so that transfer for substrate plate to enzyme plate provided the correct enzyme with the correct substrate/ATP concentration.
(§3) Compounds were added to a thawed enzyme plate in the desired format, in single concentrations. Reactions were initiated by transfer of the substrate/ATP mix from the substrate plate. The enzyme plate was incubated for 90 mins at 25° C. The reaction was stopped by addition of 70 μl of Stop Buffer (100 mM HEPES pH 7.5, 0.015% Brij-35, 10 mM EDTA (Sigma, E7889)).
Plates were read in a manner identical to that of the LC3000, and the ratio between substrate and product peaks provided the activity of the enzyme in that well.

A further assay deals with Aurora Kinase B (Homo sapiens, UniProt Q96GD4). As to the kind of experiment: Biochemical enzyme assay for Aurora B activity (Caliper mobility shift). The settings on record: LC3000 or Desktop Profiler. As to the method: as §1, §2, §3
Plates were read in a manner identical to that of the LC3000, and the ratio between substrate and product peaks provided the activity of the enzyme in that well. This was best represented by a plate heat map which colors each well by percent inhibition as compared to positive and negative controls (no inhibitors and no ATP respectively).

For orientation: IC50 means the point on the concentration scale where inhibition reaches its midpoint.

Sequence of Aurora Kinase B (Q96GD4 whole entry): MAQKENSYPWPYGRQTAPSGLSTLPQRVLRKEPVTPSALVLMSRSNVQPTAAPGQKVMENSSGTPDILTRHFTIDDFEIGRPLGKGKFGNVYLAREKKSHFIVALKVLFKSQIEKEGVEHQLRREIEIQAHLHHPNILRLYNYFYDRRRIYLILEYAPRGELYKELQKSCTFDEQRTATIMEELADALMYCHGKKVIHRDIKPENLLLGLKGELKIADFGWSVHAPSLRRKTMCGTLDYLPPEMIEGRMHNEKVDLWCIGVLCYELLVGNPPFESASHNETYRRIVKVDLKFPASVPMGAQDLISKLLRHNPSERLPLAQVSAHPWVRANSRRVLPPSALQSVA

Consider `Nc1ccc(NC(=O)c2ccccc2C(F)(F)F)cc1` [Compound 5, N-(4-Aminophenyl)-2-trifluoromethyl-benzamide], for which the IC50 at Aurora Kinase A and at Aurora Kinase B was 1 to 300 nM throughout.
In the case of `Nc1ccc(NC(=O)c2ccc(C(F)(F)F)cc2)cc1` [Compound 6, N-(4-Aminophenyl)-4-trifluoromethyl-benzamide], the IC50 on Aurora Kinase A and at Aurora Kinase B was 1 to 300 nM in each case.
As for `Nc1ccc(NC(=O)c2c(F)cccc2F)cc1` [Compound 9, N-(4-Aminophenyl)-2,6-difluoro-benzamide], the IC50 on Aurora Kinase A and on Aurora Kinase B was 1 to 300 nM throughout.
For the molecule `O=C(Nc1ccc(Nc2ccnc3[nH]c(=O)ccc23)cc1)c1ccccc1C(F)(F)F` [Compound 37, 2-Trifluoromethyl-N-(4-(7-oxo-7,8-dihydro-1,8-naphthyridin-4-yl-amino)phenyl)benzamide], the IC50 on Aurora Kinase A and at Aurora Kinase B was 601 to 1000 nM in each case.
For `O=C(Nc1ccc(Nc2ccnc3[nH]c(=O)ccc23)cc1)c1ccc(C(F)(F)F)cc1` [Compound 38, 4-Trifluoromethyl-N-(4-(7-oxo-7,8-dihydro-1,8-naphthyridin-4-yl-amino)phenyl)benzamide], the IC50 at Aurora Kinase A and on Aurora Kinase B was > 1000 nM throughout.
Consider `O=C(Nc1ccc(Nc2ccnc3[nH]c(=O)ccc23)cc1)c1cccc(C(F)(F)F)c1F` [Compound 39, 2-Fluoro-3-Trifluoromethyl-N-(4-(7-oxo-7,8-dihydro-1,8-naphthyridin-4-yl-amino)phenyl)benzamide], for which the IC50 on Aurora Kinase A and on Aurora Kinase B was > 1000 nM each time.
For the molecule `O=C(Nc1ccc(Nc2ccnc3[nH]c(=O)ccc23)cc1)c1cc(C(F)(F)F)cc(C(F)(F)F)c1` [Compound 49, 3,5-Bis(trifluoromethyl)-N-(4-(7-oxo-7,8-dihydro-1,8-naphthyridin-4-yl-amino)phenyl)benzamide], the IC50 at Aurora Kinase A was > 1000 nM.
Consider `O=C(Nc1ccc(Nc2ccnc3[nH]c(=O)ccc23)cc1)c1ccc(OC(F)(F)F)cc1` [Compound 56, 4-Trifluoromethoxy-N-(4-(7-oxo-7,8-dihydro-1,8-naphthyridin-4-yl-amino)phenyl)benzamide], for which, at Aurora Kinase A, the IC50 was 601 to 1000 nM.
Take `O=C(Nc1ccc(Nc2ccnc3nc(Cl)ccc23)cc1)c1ccccc1` [Compound 63, N-(4-(7-Chloro-1,8-naphthyridin-4-yl-amino)phenyl)benzamide]: the IC50 on Aurora Kinase A lay in the range of 1 to 300 nM.
On to `CN(C)C1CCN(c2ccc3c(Nc4ccc(C(=O)Nc5ccccc5)cc4)ccnc3n2)CC1` [Compound 64], for which the IC50 on Aurora Kinase A lay in the range of 1 to 300 nM.
`CN(C)CCCOc1ccc2c(Nc3ccc(C(=O)Nc4ccccc4)cc3)ccnc2n1` [Compound 69, N-(4-(7-(4-Dimethylamino-propoxy)-1,8-naphthyridin-4-yl-amino)phenyl)benzamide]: the IC50 on Aurora Kinase A is > 1000 nM.
For `CC(C)(C)C(=O)Nc1nccc(Cl)c1C(=O)c1ccccc1` [Compound 73, N-(3-Benzoyl-4-chloropyridin-2-yl)-2,2-dimethylpropanamide], on Aurora Kinase A, the IC50 is 1 to 300 nM.
Take `Nc1nccc(Cl)c1C(=O)c1ccccc1` [Compound 74, (2-Amino-4-chloro-pyridin-3-yl)-phenyl-methanone]: the IC50 on Aurora Kinase A is 1 to 300 nM.
`CC(C)(C)OC(=O)c1c(-c2ccccc2)c2c(Cl)ccnc2[nH]c1=O` [Compound 75, 5-Chloro-2-oxo-4-phenyl-1,2-dihydro-1,8-naphthyridi-3-carboxylic acid tert-butyl ester]: at Aurora Kinase A, the IC50 lay within 1 to 300 nM.
`O=C(Nc1ccc(Nc2ccnc3[nH]c(=O)c(C(=O)O)c(-c4ccccc4)c23)cc1)c1ccc(F)c(F)c1` [Compound 76, 5-[(3,4-Difluoro-benzoylamino)-phenylamino]-2-oxo-4-phenyl1,2-dihydro-1,8-naphthyridine-3-carboxylic acid]: the IC50 at Aurora Kinase A fell in the range of 1 to 300 nM.
For the molecule `CN(C)CCNC(=O)c1c(-c2ccccc2)c2c(Nc3ccc(NC(=O)c4ccc(F)c(F)c4)cc3)ccnc2[nH]c1=O` [Compound 77, 5-[(3,4-Difluoro-benzoylamino)-phenylamino]-2-oxo-4-phenyl-1,2-dihydro-1,8-naphthyridine-3-carboxylic acid (2-dimethylamino-ethyl)-amide], the IC50 at Aurora Kinase A was > 1000 nM.
On to `O=C(Nc1ccc(Nc2ccnc3[nH]c(=O)c(C(=O)NCCO)c(-c4ccccc4)c23)cc1)c1ccc(F)c(F)c1` [Compound 78, 5-[(3,4-Difluoro-benzoylamino)-phenylamino]-2-oxo-4-phenyl-1,2-dihydro-1,8-naphthyridine-3-carboxylic acid (2-hydroxy-ethyl)-amide], for which the IC50 on Aurora Kinase A fell in the range of 1 to 300 nM.
Take `O=C(Nc1ccc(Nc2ccnc3[nH]c(=O)c(C(=O)NC[C@H](O)CO)c(-c4ccccc4)c23)cc1)c1ccc(F)c(F)c1` [Compound 79, 5-[(3,4-Difluoro-benzoylamino)-phenylamino]-2-oxo-4-phenyl-1,2-dihydro-1,8-naphthyridine-3-carboxylic acid ((S)2,3-dihydroxypropyl)-amide]: the IC50 at Aurora Kinase A is > 1000 nM.
Same read-out and setting: as for `O=C(O)Cc1cc2c(Cl)ccnc2[nH]c1=O` [Compound 80, (5-Chloro-2-oxo-1,2-dihydro-1,8-naphthyridin-3-yl)-acetic acid], the figure is 1 to 300 nM; as for `O=C(Cc1cc2c(Nc3ccc(NC(=O)c4ccc(F)c(F)c4)cc3)ccnc2[nH]c1=O)NCCO` [Compound 82], 1 to 300 nM; as for `Nc1ncnc(Nc2ccc(NC(=O)c3ccccc3)cc2)c1C=O` [Compound 83, N-[4-(6-Amino-5-formyl-pyrimidin-4-ylamino)-phenyl]-benzamide], > 1000 nM.
For `COC(=O)c1cc2c(Nc3ccc(NC(=O)c4ccccc4)cc3)ncnc2[nH]c1=O` [Compound 84, 4-(4-Benzoylamino-phenylamino)-7-oxo-7,8-dihydro-pyrido[2,3-d]pyrimidine-6-carboxylic acid methyl ester], the IC50 on Aurora Kinase A is > 1000 nM.
The same measure, in the same setting: as for `O=C(Nc1ccc(Nc2ncnc3[nH]c(=O)c(C(=O)O)cc23)cc1)c1ccccc1` [Compound 85, 4-(4-Benzoylamino-phenylamino)-7-oxo-7,8-dihydro-pyrido[2,3-d]pyrimidine-6-carboxylic acid], the figure is > 1000 nM.
Consider `CN(C)CCNC(=O)c1cc2c(Nc3ccc(NC(=O)c4ccccc4)cc3)ncnc2[nH]c1=O` [Compound 86, 4-(4-Benzoylamino-phenylamino)-7-oxo-7,8-dihydro-pyrido[2,3-d]pyrimidine-6-carboxylic acid 2-(dimethylamino-ethyl)-amide], for which the IC50 at Aurora Kinase A was > 1000 nM; on Aurora Kinase B, 601 to 1000 nM.
On to `O=C(Nc1ccc(Nc2ccnc3[nH]c(=O)c([N+](=O)[O-])cc23)cc1)c1ccc(F)c(F)c1` [Compound 87, 3,4-Difluoro-N-(4-(6-nitro-7-oxo-7,8-dihydro-1,8-naphthyridin-4-ylamino)phenyl)benzamide], for which the IC50 on Aurora Kinase A fell in the range of 1 to 300 nM.
With `O=C(Nc1ccc(Nc2ccnc3[nH]c(=O)c([N+](=O)[O-])cc23)cc1)c1ccc(F)cc1C(F)(F)F` [Compound 88, 4-Fluoro-2-trifluoromethyl-N-(4-(6-nitro-7-oxo-7,8-dihydro-1,8-naphthyridin-4-yl-amino)phenyl)benzamide], the IC50 at Aurora Kinase A lay within 1 to 300 nM.
In the case of `Nc1cc2c(Nc3ccc(NC(=O)c4ccc(F)c(F)c4)cc3)ccnc2[nH]c1=O` [Compound 89, 3,4-Difluoro-N-(4-(6-amino-7-oxo-7,8-dihydro-1,8-naphthyridin-4-yl-amino)phenyl)benzamide], the IC50 on Aurora Kinase A and at Aurora Kinase B was 1 to 300 nM each time.
